Key:
c-MYC protein expression = assay: Expression level of Wnt/β-catenin target protein c-MYC by western blotting in HCT116 cells; type: cell-based; conditions: Homo sapiens, 24 hours, read-out: Inhibition rate (%) c-MYC protein
Description: Expression levels of target proteins of the Wnt/β-catenin signaling pathway was analyzed by western blotting method, and effects of the compound of the present invention on Wnt/β-catenin signaling activity were studied by using a change of these levels as an indicator. HCT116 cells cultured in the same manner as in Test Example 2 were diluted with the medium 1 so as to have a cell concentration of 5×10^5 cells/mL, and 5 mL of the diluted cells were seeded into T25 flasks, followed by culturing overnight in the 5% CO2 incubator. Next day, solutions of the compound to be tested obtained by diluting 10 and 3 mM DMSO stock solutions of the compound to be tested 100-fold with the medium 1 were added to each flask so that the amount of the solution in the flask was one tenth of the amount of the final solution (final concentrations of the compound to be tested: 10 and 3 μM). […] Supernatant was recovered by centrifugal operation (15,000 rpm, 10 min.) and amounts of proteins were determined. […] Thereafter, using a CCD camera (GE Healthcare Co., ImageQuant LAS 500), the respective bands were detected by chemiluminescence. The detected bands were quantified by densitometry (GE Healthcare Co., ImageQuant TL v8.1.0.0). Inhibition rates were calculated from the intensities of the bands in the respective groups, with the luminescence of the band of the DMSO added group being 100%. […]

[1] = test system: human-derived colorectal cancer cell line HCT116; assay: Antitumor effects in mice model subcutaneously transplanted with human-derived cancer cell line; type: in vivo; conditions: oral, twice a day for 14 days, HCT116 nude mice
Description: The antitumor effects of the compound of the present invention were studied using nude mice subcutaneously transplanted with a human-derived colorectal cancer cell line HCT116, in which the Wnt signaling pathway was constantly activated.
HCT116 cells cultured in the same manner as in Test Example 2 were adjusted with D-PBS (NACALAI TESQUE, INC.) so as to have a cell concentration of 7.5×10^7/mL, and the cell suspension was ice cooled in a 15 mL tube. To the cell suspension, Matrigel (BD Biosciences Co.) was added in an amount of one-fourth of the cell suspension to prepare a preparation for cell transplantation. Into the back of BALB/c Slc-nu/nu mice (female, 8 weeks old, Japan SLC, Inc.), 0.1 mL of the preparation for cell transplantation was subcutaneously injected. […]
To the respective mice transplanted with cancer cells (nine in each group), forced oral administration of doses of the substance to be tested calculated from their body weights was performed twice a day (at intervals of six hours or more) for 14 days in total. Tumor volumes of the respective mice were calculated using the following formulas, and the antitumor effects were evaluated using a relative tumor volume ratio as an indicator.

SMILES: O[C@H]1CC[C@@H](Oc2cccc3cnc(Nc4ccc5nc[nH]c5c4)nc23)CC1 [Example 1, cis-4-({2-[(1H-benzo[d]imidazol-6-yl)amino]quinazolyn-8-yl}oxy)cyclohexanol]
- inhibition at 3 µM (c-MYC protein expression; HCT-116, 3 μM): 63.9%
- inhibition at 10 µM (c-MYC protein expression; HCT-116, 10 μM): 90.2%
- Tumor growth inhibition rate (TGI) on the last administration day ([1]; 40 mg/kg): 42%
- Tumor growth inhibition rate (TGI) on the last administration day ([1]; 80 mg/kg): 70%
